The source of these data is patent US5817776A, “Amino acid analogs for tumor imaging” (priority 1996, dated 1998).

The structures appear in SMILES notation.

By tissue uptake is commonly meant the share of the injected amount in each gram of the tissue. Higher therefore signals high uptake.

For data set [1], the system named is metastatic lesions in the brain. The conditions noted are these: cited from earlier work.
For data set [2], the system named is several tumor types. The conditions noted are these: labeled with carbon-14 or carbon-11, animals, Washburn et al. 1979; cited from earlier work.
In data set [3] the test system is N-methyl-D-aspartic acid (NMDA) receptor, strychnine-insensitive glycine recognition site. The conditions noted are these: cited from earlier work.
Data set [4] relates to normal tissue. The conditions noted are these: in vivo; cited from earlier work.
Data set [5] relates to human astrocyte tumor cells. Nature of the data set: Binding to human astrocyte tumor cells in a human patient. The class given is in vivo.
Data set [6] can be described thus: in vivo. The conditions noted are these: rat, in vivo, iv, Mean % Injected Dose/Gram. Here is the method:
(§1) In vivo distribution of a compound of the invention, [^18 F]-1-amino-3-fluoro-cyclobutane-1-carboxylic acid (FACBC) was measured in rats having an implanted gliosarcoma. Accumulation in various tissue was measured at 5 min and 60 min post-administration.
(§2) Distribution of Radioactivity in Tissues of Unfasted Male
(§3) Fisher Rats following Intravenous Administration of [^18 F]FACBC

The subject of data set [7] is implanted gliosarcoma. The experiment in a line: in vivo. The conditions noted are these: for Bone, Mean % Injected Dose/Gram: unfasted male fisher rats, average of 4 rats. On the procedure: as §1, §2, §3
Setting [8] is: 60 min, intravenous, male fisher rats with implanted gliosarcoma.

For `NC1(C(=O)O)CCC1` [ACBC, 1-aminocyclobutanecarboxylic acid], the “substrate for protein synthesis in metastatic lesions; normal brain uptake (in words)” value in data set [1] is on record as “selective substrate for protein synthesis in metastatic lesions in the brain with little observable uptake in normal brain tissue”. Further, the “incorporation by tumors (in words)” value in data set [2] is recorded as “incorporated preferentially by several tumor types in animals”. Besides, the “NMDA receptor ligand and antagonist activity (in words)” value in data set [3] is “selective and potent ligand and antagonist”.
Regarding `CSCC[C@H](N)C(=O)O` [[^11 C] methionine, methionine], the “uptake in normal tissue (in words)” value in data set [4] is given as “relatively high uptake in normal tissue”.
Regarding `NC1(C(=O)O)CC([18F])C1` (stereo not shown) [[^18 F]FACBC, [^18 F]-1-amino-3-fluorocyclobutane-1-carboxylic acid], the “binding to human astrocyte tumor cells (in words)” value in data set [5] is “highly specific binding to human astrocyte tumor cells”. Moreover, the tissue uptake at 5 min in data set [6] (Blood, 5 min, unfasted male fisher rats, average of 4 rats) was found to be 0.58 %ID/g; in data set [6] (Bone, 5 min, unfasted male fisher rats, average of 4 rats), 0.52 %ID/g; in data set [6] (Brain (B)) it was 0.11 %ID/g; in data set [6] (Heart), 0.7 %ID/g; in data set [6] (Kidney), 1.08 %ID/g; in data set [6] (Liver) it was 1.1 %ID/g. Besides, the tissue uptake at 5 min in data set [6] (Lung) was 1.13 %ID/g; in data set [6] (Muscle) it was 0.27 %ID/g; in data set [6] (Spleen) it was 1.55 %ID/g; in data set [6] (Testis), 0.25 %ID/g; in data set [6] (Tumor (T), 5 min, male fisher rats with implanted gliosarcoma) it was 0.61 %ID/g. The tissue uptake at 1 h in data set [6] (Blood, 60 min, unfasted male fisher rats, average of 4 rats) came out at 0.32 %ID/g; in data set [6] (Bone, 60 min, unfasted male fisher rats, average of 4 rats), 0.38 %ID/g; in data set [6] (Brain (B)), 0.26 %ID/g; in data set [6] (Heart) it was 0.56 %ID/g; in data set [6] (Kidney), 0.6 %ID/g; in data set [6] (Liver) it was 1.7 %ID/g. Further, the tissue uptake at 1 h in data set [6] (Lung) came to 0.64 %ID/g; in data set [6] (Muscle), 0.41 %ID/g; in data set [6] (Spleen), 0.68 %ID/g; in data set [6] (Testis) it was 0.28 %ID/g; in data set [6] (Tumor (T), 60 min, male fisher rats with implanted gliosarcoma), 1.72 %ID/g. The “T/B (tumor to brain ratio)” value in data set [7] (5 min, intravenous, male fisher rats with implanted gliosarcoma) is reported as 5.58; in data set [7] (setting [8]) it was 6.6; in data set [7] (rat, in vivo, iv), 6.61. The “Bone, Mean % Injected Dose/Gram” value in data set [7] (5 min, intravenous) is listed as 0.52 % Injected Dose/Gram; in data set [7] (60 min, intravenous), 0.38 % Injected Dose/Gram. The “Tumor (T), Mean % Injected Dose/Gram” value in data set [7] (setting [8]) was 1.72 % Injected Dose/Gram. The “stability to in vivo defluorination (bone uptake)” value in data set [7] (rat, in vivo, iv) is listed as “Uptake by bone was essentially constant over the 60 minutes of exposure, indicating stability of the 2-cyclobutyl group to significant in vivo defluorination”. In data set [7] (rat, in vivo, iv), the “tumor uptake / tumor to brain discrimination (in words)” value is “preferentially associated with tumor tissue as early as 5 minutes post administration”. Besides, the “Brain (B), Mean % Injected Dose/Gram” value in data set [7] (rat, in vivo, iv, 5 min) stood at 0.11 % Injected Dose/Gram; in data set [7] (rat, in vivo, iv, 1 h) it was 0.26 % Injected Dose/Gram.
